According to patent US20240083861A1, “HSD17B13 INHIBITORS AND USES THEREOF” (FL2022-001, Inc., priority 2020, published 2024):

Biological target: T1, Recombinant human HSD17B13 enzyme (Homo sapiens, UniProt Q7Z5P4)
T1 sequence (Q7Z5P4 20-300): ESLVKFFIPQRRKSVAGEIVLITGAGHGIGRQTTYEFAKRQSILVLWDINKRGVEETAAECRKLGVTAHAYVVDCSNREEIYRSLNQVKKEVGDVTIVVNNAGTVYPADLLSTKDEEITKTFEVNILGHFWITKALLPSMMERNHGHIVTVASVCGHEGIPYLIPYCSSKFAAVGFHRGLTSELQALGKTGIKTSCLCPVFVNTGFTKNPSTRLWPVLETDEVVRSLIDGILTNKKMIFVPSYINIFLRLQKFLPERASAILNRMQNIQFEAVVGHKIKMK
Test: HSD17b13 NAD(P)H-Glo biochemical assay
Settings: 50 uM estradiol, 1 mM NAD+, NAD(P)H-Glo luminescence; read-out: HSD17β13 IC50
Method in brief: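 Luminescent NAD(P)H-Glo read-out, taken after 1 hour at RT, measured cofactor reduction. Substrate and cofactor were estradiol at 50 uM and NAD+ at 1 mM final, reacted with the recombinant human enzyme for 3 hours at 37° C in 20 mM Tris pH7.4, 0.002% Tween-20, 0.02% BSA. Compound was pre-incubated with enzyme for 20 minutes at RT.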

Row | SMILES | IC50 [nM]
1 | Cn1nc(-c2cc(C(F)(F)F)cc(O)c2F)c2cnc(C3CCN(S(C)(=O)=O)CC3)cc21 [Compound 13.01, 2-Fluoro-3-(1-methyl-6-(1-(methylsulfonyl)piperidin-4-yl)-1H-pyrazolo[4,3-c]pyridin-3-yl)-5-(trifluoromethyl)phenol] | 100 to 1000
2 | CS(=O)(=O)N1CC=C(c2ccc3c(-c4cc(O)c(F)c(C(F)(F)F)c4)n[nH]c3c2)CC1 [Compound 14, 2-Fluoro-5-(6-(1-(methylsulfonyl)-1,2,3,6-tetrahydropyridin-4-yl)-1H-indazol-3-yl)-3-(trifluoromethyl)phenol] | 100 to 1000
3 | Cn1nc(-c2cc(O)c(F)c(C(F)(F)F)c2)c2ccc(C3=CCN(S(C)(=O)=O)CC3)cc21 [Compound 14.01, 2-Fluoro-5-(1-methyl-6-(1-(methylsulfonyl)-1,2,3,6-tetrahydropyridin-4-y1)-1H-indazol-3-y1)-3-(trifluoromethyl)phenol] | < 100
4 | Cc1cc(-c2n[nH]c3cc(C4=CCN(S(C)(=O)=O)CC4)ccc23)c(F)c(O)c1F [Compound 14.02, 2,6-Difluoro-3-methyl-5-(6-(1-(methylsulfonyl)-1,2,3,6-tetrahydropyridin-4-y1)-1H-indazol-3-y1)phenol] | < 100
5 | CS(=O)(=O)N1CC=C(c2cc3[nH]nc(-c4cc(O)c(F)c(C(F)(F)F)c4)c3cn2)CC1 [Compound 14.03, 2-Fluoro-5-(6-(1-(methylsulfony1)-1,2,3,6-tetrahydropyridin-4-yl)-1H-pyrazolo[4,3-c]pyridin-3-yl)-3-(trifluoromethyl)phenol] | 100 to 1000
6 | CS(=O)(=O)N1CCC(c2ccc3c(-c4cc(O)c(F)c(C(F)(F)F)c4)n[nH]c3c2)CC1 [Compound 15, 2-Fluoro-5-(6-(1-(methylsulfonyl)piperidin-4-yl)-1H-indazol-3-yl)-3-(trifluoromethyl)phenol] | 100 to 1000
7 | Oc1cc(-c2n[nH]c3cc(-c4ccc(O)c(Cl)c4)ccc23)ccc1F [Compound 16, 2-Chloro-4-(3-(4-fluoro-3-hydroxyphenyl)-1H-indazol-6-yl)phenol] | 100 to 1000
8 | Cn1nc(-c2ccc(F)c(O)c2)c2ccc(-c3ccc(O)c(Cl)c3)cc21 [Compound 17, 2-Chloro-4-(3-(4-fluoro-3-hydroxyphenyl)-1-methyl-1H-indazol-6-yl)phenol] | 100 to 1000
9 | Cn1nc(-c2cc(C(F)(F)F)c(F)c(O)c2F)c2cnc(N3CCOC4(CCC4)C3)nc21 [Compound 18, 2,6-Difluoro-3-(1-methyl-6-(5-oxa-8-azaspiro[3.5]nonan-8-yl)-1H-pyrazolo[3,4-d]pyrimidin-3-yl)-5-(trifluoromethyl)phenol] | < 100

Other lines, results leading:

Row | IC50 [nM] | SMILES
10 | < 100 | Cc1cc(-c2n[nH]c3cc(C4CCN(S(C)(=O)=O)CC4)ccc23)c(F)c(O)c1F [Compound 15.01, 2,6-Difluoro-3-methyl-5-(6-(1-(methylsulfony1)piperidin-4-y1)-1H-indazol-3-yl)phenol]
11 | 100 to 1000 | Cn1nc(-c2cc(O)c(F)c(C(F)(F)F)c2)c2ccc(C3CCN(S(C)(=O)=O)CC3)cc21 [Compound 15.02, 2-Fluoro-5-(1-methyl-6-(1-(methylsulfonyl)piperidin-4-y1)-1H-indazol-3-yl)-3-(trifluoromethyl)phenol]
12 | 100 to 1000 | Cn1nc(-c2cc(C(F)(F)F)c(F)c(O)c2F)c2cnc(C3CCN(S(C)(=O)=O)CC3)cc21 [Compound 15.03, 2,6-Difluoro-3-(1-methyl-6-(1-(methylsulfony1)piperidin-4-y1)-1H-pyrazolo[4,3-c]pyridin-3-y1)-5-(trifluoromethyl)phenol]
13 | < 100 | Cn1nc(-c2cc(C(F)(F)F)c(F)c(O)c2F)c2cnc(C3CCN(S(C)(=O)=O)CC3)nc21 [Compound 15.04, 2,6-Difluoro-3-(1-methyl-6-(1-(methylsulfony1)piperidin-4-y1)-1H-pyrazolo[3,4-d]pyrimidin-3-yl)-5-(trifluoromethyl)phenol]
14 | < 100 | Cn1nc(-c2cc(C(F)(F)F)c(F)c(O)c2F)c2cnc(N3CCOCC3CO)nc21 (stereo not drawn) [Compound 18.01, 2,6-Difluoro-3-(6-(3-(hydroxymethyl)morpholino)-1-methyl-1H-pyrazolo[3,4-d]pyrimidin-3-y1)-5-(trifluoromethyl)phenol]
15 | 100 to 1000 | Cn1nc(-c2cc(C(F)(F)F)c(F)c(O)c2F)c2cnc(N3CCOC(CO)C3)nc21 (stereo not drawn) [Compound 18.02, 2,6-Difluoro-3-(6-(2-(hydroxymethyl)morpholino)-1-methyl-1H-pyrazolo[3,4-d]pyrimidin-3-y1)-5-(trifluoromethyl)phenol]
16 | < 100 | COCC1COCCN1c1ncc2c(-c3cc(C(F)(F)F)c(F)c(O)c3F)nn(C)c2n1 (stereo not drawn) [Compound 18.03, 2,6-Difluoro-3-(6-(3-(methoxymethyl)morpholino)-1-methyl-1H-pyrazolo[3,4-d]pyrimidin-3-y1)-5-(trifluoromethyl)phenol]
17 | < 100 | Cn1nc(-c2cc(C(F)(F)F)c(F)c(O)c2F)c2cnc(N3CCC(O)CC3)nc21 [Compound 18.04, 1-(3-(2,4-Difluoro-3-hydroxy-5-(trifluoromethyl)phenyl)-1-methyl-1H-pyrazolo[3,4-d]pyrimidin-6-y1)piperidin-4-ol]
18 | < 100 | Cn1nc(-c2cc(C(F)(F)F)c(F)c(O)c2F)c2cnc(N3CCCC(O)C3)nc21 (stereo not drawn) [Compound 18.05, 1-(3-(2,4-Difluoro-3-hydroxy-5-(trifluoromethyl)phenyl)-1-methyl-1H-pyrazolo[3,4-d]pyrimidin-6-y1)piperidin-3-ol]
19 | < 100 | COC1CCCN(c2ncc3c(-c4cc(C(F)(F)F)c(F)c(O)c4F)nn(C)c3n2)C1 (stereo not drawn) [Compound 18.06, 2,6-Difluoro-3-(6-(3-methoxypiperidin-1-yl)-1-methyl-1H-pyrazolo[3,4-d]pyrimidin-3-yl)-5-(trifluoromethyl)phenol]
20 | < 100 | Cn1nc(-c2cc(C(F)(F)F)c(F)c(O)c2F)c2cnc(N3CCOC(C(N)=O)C3)nc21 (stereo not drawn) [Compound 18.07, 4-(3-(2,4-Difluoro-3-hydroxy-5-(trifluoromethyl)phenyl)-1-methyl-1H-pyrazolo[3,4-d]pyrimidin-6-yl)morpholine-2-carboxamide]
21 | < 100 | CN1CCC2(CCN(c3ncc4c(-c5cc(C(F)(F)F)c(F)c(O)c5F)nn(C)c4n3)CC2)C1=O [Compound 18.08, 8-(3-(2,4-Difluoro-3-hydroxy-5-(trifluoromethyl)phenyl)-1-methyl-1H-pyrazolo[3,4-d]pyrimidin-6-yl)-2-methyl-2,8-diazaspiro[4.5]decan-1-one]
22 | < 100 | Cn1nc(-c2cc(C(F)(F)F)c(F)c(O)c2F)c2cnc(N3CCC(C(N)=O)CC3)nc21 [Compound 18.09, 1-(3-(2,4-Difluoro-3-hydroxy-5-(trifluoromethyl)phenyl)-1-methyl-1H-pyrazolo[3,4-d]pyrimidin-6-yl)piperidine-4-carboxamide]
23 | < 100 | Cn1nc(-c2cc(C(F)(F)F)c(F)c(O)c2F)c2cnc(N3CCC4(CCNC4=O)CC3)nc21 [Compound 18.10, 8-(3-(2,4-Difluoro-3-hydroxy-5-(trifluoromethyl)phenyl)-1-methyl-1H-pyrazolo[3,4-d]pyrimidin-6-yl)-2,8-diazaspiro[4.5]decan-1-one]
24 | 100 to 1000 | Cn1nc(-c2cc(C(F)(F)F)c(F)c(O)c2F)c2cnc(N3[C@@H]4CNC[C@H]3COC4)nc21 [Compound 18.11, 3-(6-((1R,5S)-3-oxa-7,9-diazabicyclo[3.3.1]nonan-9-y1)-1-methyl-1H-pyrazolo[3,4-d]pyrimidin-3-y1)-2,6-difluoro-5-(trifluoromethyl)phenol]
25 | 100 to 1000 | Cn1nc(-c2cc(C(F)(F)F)c(F)c(O)c2F)c2cnc(N3CC4(CCCNC4=O)C3)nc21 [Compound 18.12, 2-(3-(2,4-Difluoro-3-hydroxy-5-(trifluoromethyl)phenyl)-1-methyl-1H-pyrazolo[3,4-d]pyrimidin-6-yl)-2,6-diazaspiro[3.5]nonan-5-one]
26 | < 100 | Cn1nc(-c2cc(C(F)(F)F)c(F)c(O)c2F)c2cnc(N3CCC34CCOCC4)nc21 [Compound 18.13, 2,6-Difluoro-3-(1-methy1-6-(7-oxa-1-azaspiro[3.5]nonan-1-y1)-1H-pyrazolo[3,4-d]pyrimidin-3-y1)-5-(trifluoromethyl)phenol]
27 | < 100 | Cn1nc(-c2cc(C(F)(F)F)c(F)c(O)c2F)c2cnc(N3CCC(CO)CC3)nc21 [Compound 18.14, 2,6-Difluoro-3-(6-(4-(hydroxymethyl)piperidin-1-y1)-1-methyl-1H-pyrazolo[3,4-d]pyrimidin-3-y1)-5-(trifluoromethyl)phenol]
28 | < 100 | Cn1nc(-c2cc(C(F)(F)F)c(F)c(O)c2F)c2cnc(N3CCC4(CCC(=O)N4)CC3)nc21 [Compound 18.15, 8-(3-(2,4-Difluoro-3-hydroxy-5-(trifluoromethyl)phenyl)-1-methyl-1H-pyrazolo[3,4-d]pyrimidin-6-yl)-1,8-diazaspiro[4.5]decan-2-one]
29 | < 100 | Cn1nc(-c2cc(C(F)(F)F)c(F)c(O)c2F)c2cnc(N3CCC4(CC3)CC(=O)N4)nc21 [Compound 18.16, 7-(3-(2,4-Difluoro-3-hydroxy-5-(trifluoromethyl)phenyl)-1-methyl-1H-pyrazolo[3,4-d]pyrimidin-6-yl)-1,7-diazaspiro[3.5]nonan-2-one]
30 | < 100 | CN1CCN(c2ncc3c(-c4cc(C(F)(F)F)c(F)c(O)c4F)nn(C)c3n2)CC12CC2 [Compound 18.17, 2,6-Difluoro-3-(1-methyl-6-(4-methyl-4,7-diazaspiro[2.5]octan-7-y1)-1H-pyrazolo[3,4-d]pyrimidin-3-y1)-5-(trifluoromethyl)phenol]
